According to ChEMBL document CHEMBL1124178, “Nucleosides of 1,4-thiazin-3-one and derivatives as tetrahedral intermediate analogues of enzymes in pyrimidine nucleoside metabolism” (J Med Chem, 1988):

How the values were obtained:
Type in all cases: functional
CCRF-CEM = assay: In vitro inhibitory activity against the growth of CCRF-CEM human T lymphoblastic leukemia.; settings: read-out: ID50 (the source's name)
Homo sapiens = species on record: Homo sapiens; assay: In vitro Inhibitory activity against the growth of WIL-2 human B lymphoblastic leukemia.
L1210 = assay: In vitro Inhibitory activity against the growth of L1210 murine lymphocytic leukemia; settings: Mus musculus, read-out: ID50 (the source's name)

- IC50 (CCRF-CEM): 35.5 µM
- IC50 (L1210): 3000 nM
SMILES: CC1=CSCC(=O)N1
- ID50 (Homo sapiens): 41.7 µM
